Laboratory results published in patent publication US11738088B2, “Boryl ethers, carbonates, and cyclic acetals as oxidatively-triggered drug delivery vehicles” (University of Pittsburgh—Of the Commonwealth System of …, priority 2016, dated 2023).

Assays:
[1] = Oxidative breakdown with urea.H2O2 monitored by 1H NMR; assay type: physicochemical; conditions: for yield of released product (1H NMR vs internal standard) / half-life: 6-12 equiv H2O2.urea, pH 8.0, CD3CN:D2O 5:1, rt; for half-life: H2O2.urea (6-12 equiv) in CD3CN:D2O 5:1, read-out: t1/2 (substrate consumption); for oxidative breakdown / cargo release (in words): in the presence of H2O2
Procedure: The oxidative breakdown of compounds 7 and 8 was achieved by subjecting them (˜25 mM) to urea.H2O2 (300 mM) in a mixture of CD3CN and aqueous (D2O) buffer (pH=8.0). The buffer was selected to mimic the experimentally determined pH of mitochondria in consideration of potential applications to mitigating neuronal oxidative stress. Initial experiments were conducted in a 5:1 ratio of CD3CN and buffer (Scheme 3). Reaction progress was monitored by ^1H NMR through following the disappearance of the signals for diastereotopic hydrogens from the methylene group in the starting materials and the appearance of the corresponding enantiotopic hydrogens in butanone. Conversions were calculated by comparison to the internal standard 1,2-dimethoxyethane.

[2] = as above; assay type: physicochemical; conditions: urea.H2O2 300 mM
[3] = ~25 mM substrate, urea.H2O2 300 mM, CD3CN:buffer 5:1, pH 8.0

Compound	yield of released product (1H NMR vs internal standard) [1]	half-life [1]	oxidative breakdown / cargo release (in words) [1]	other results
CCC(C)(OC(=O)c1ccccc1)B1OC(C)(C)C(C)(C)O1 (centres unmarked) [Compound 22]	16%	> 936 min	–	–
CCOC(C)(CCc1ccc(O[Si](C)(C)C(C)(C)C)cc1)B1OC(C)(C)C(C)(C)O1 (centres unmarked) [Compound 15]	89%	< 2 min	–	–
CCC(C)(OCOC1CCCCC1)B1OC(C)(C)C(C)(C)O1 (centres unmarked) [Compound 11]	84%	< 2 min	released smoothly	–
CCC(C)(OCOC)B1OC(C)(C)C(C)(C)O1 (centres unmarked) [Compound 7]	–	–	–	NMR yield of butanone ([2]; CD3CN:buffer 1:1): 84%; NMR yield of butanone ([2]; pH 7.2): 81%; NMR yield of butanone ([1]; urea.H2O2 300 mM, CD3CN:buffer 5:1, pH 8.0): 79%; time for consumption of 50% of the starting material [1, 3]: less than 2 min
CC(C)C(OC1CCCCC1)B1OC(C)(C)C(C)(C)O1 (centres unmarked) [Compound 19]	83%	< 2 min	–	–
Cc1c(C)c2c(c(C)c1OC(=O)OC(C)(CCO[Si](C)(C)C(C)(C)C)B1OC(C)(C)C(C)(C)O1)CCC(C)(C)O2 (centres unmarked) [Compound 20]	79%	90 min	somewhat slow	–
CCC(C)(OCO[C@@H]1C[C@H](C)CC[C@H]1C(C)C)B1OC(C)(C)C(C)(C)O1 (some centres unmarked) [Compound 13]	85%	< 2 min	released smoothly	–
CCC(C)(OCC(C)C)B1OC(C)(C)C(C)(C)O1 (centres unmarked) [Compound 17]	89%	< 2 min	–	–
COc1ccc([C@H]2OCC[C@](C)(B3OC(C)(C)C(C)(C)O3)O2)cc1 [Compound 28]	–	–	–	time for consumption of 50% of the starting material ([1]; H2O2, pH 8.0): ≤ 90 s; time to complete conversion ([1]; H2O2, pH 8.0): < 15 min; yield of anisaldehyde and 1-hydroxy-3-butanone ([1]; H2O2, pH 8.0): 94%
CC1(B2OC(C)(C)C(C)(C)O2)CCOC(c2ccccc2)(c2ccccc2)O1 (centres unmarked) [Compound 29]	–	–	quickly and efficiently	–
CCC(C)(OC(=O)Oc1ccccc1)B1OC(C)(C)C(C)(C)O1 (centres unmarked) [Compound 8]	–	–	–	time for consumption of 50% of the starting material ([2]; CD3CN:buffer 1:1): ≤ 12 min; yield of the desired products ([2]; CD3CN:buffer 1:1): 84%; yield of the desired products ([1]; urea.H2O2 300 mM, CD3CN:buffer 5:1): 84%; time for consumption of 50% of the starting material [1, 3]: 1320 s
